Laboratory results from patent publication US8765953B2, “Compounds and methods for the treatment of pain and other diseases” (Aquilus Pharmaceuticals, Inc., priority 2008, dated 2014).

Tests used:
[1] = In-vitro mouse microsomal stability; type: in vitro ADME; details: mouse microsomes, 1 microMolar compound, at T = 60 minutes
Procedure: Human and mouse microsomal stability was determined for select compounds following the method of Houston (Houston, J. B; Biochem. Pharmacol. 47, (1994),1469).
1 μM concentration of compound and separate human and mouse microsomes (0.3 mg/mL, BD bioscience) were used in the in-vitro assay. To ensure proper energy supply for microsomal degradation of compound, an energy regenerating system comprised of 100 mM potassium phosphate, 2 mM NADPH, 3 mM MgCl2, pH=7.4. and the microsomal protein is added to each sample and the resulting suspension is then incubated in duplicate for 60 min at 37° C. in a rotary shaker. A control is run for each test agent in duplicate omitting NADPH to detect NADPH-free degradation. At T=0 and T=60 min., an aliquot is removed from each experimental and control reaction and then mixed with an equal volume of ice-cold Stop Solution (consisting of 0.3% acetic acid in acetonitrile containing haloperidol and diclofenac as internal standards). Stopped reactions are then incubated for at least ten minutes at −20° C., and an additional volume of water is then added. The samples are then centrifuged to remove precipitated protein, and the supernatants are then analyzed by LC-MS/MS to determine the percentage of compound remaining. The LC-MS/MS system used was an Agilent 6410 mass spectrometer coupled with an Agilent 1200 HPLC and a CTC PAL chilled autosampler, all controlled by MassHunter software (Agilent), or an ABI2000 mass spectrometer coupled with an Agilent 1100 HPLC and a CTC PAL chilled autosampler, all controlled by Analyst software (ABI). After separation on a C18 reverse phase HPLC column (Agilent, Waters, or equivalent) using an acetonitrile-water gradient system, peaks were analyzed by mass spectrometry (MS) using ESI ionization in MRM mode.

[2] = test system: spinal nerve ligation (SNL) mouse model; test: Intraperitoneal (i.p.) SNL-mouse model of neuropathic pain, von Frey mechanical allodynia; type: in vivo
Description: To measure the neuropathic pain inhibiting affects of the MMP inhibitors of the present invention, the spinal nerve ligation (SNL) mouse model was run on a select number of compounds. This model which began with the work of Bennet and coworkers (Bennet, G. J. et al. Pain, 33, (1988), 87-107) and was optimized by Kim and Chung (Kim, S. H.; Chung, J. M. Pain, 50, (1992), 355-363) entails first, under magnification, the removal of one-third of the transverse process and then identifying and then dissecting free the L5 spinal nerve from the adjacent L4 spinal nerve in the mouse. The L5 spinal nerve is then tightly ligated using 6.0 silk suture. The nerve injury leads to hyperalgesia which manifests itself by enhanced responses to mechanical, heat and/or cooling stimuli. In this case, mechanical hyperalgesia is tested via Von Frey monofilaments in which filaments of varying thicknesses and bending force are individually applied to the plantar surface of the foot of the mouse. The threshold force necessary for paw withdrawal decreases dramatically after the nerve surgery. Potent pain inhibitors will reverse this affect resulting in greater force needing to be applied to cause the rodent paw to withdrawal.
Tactile Allodynia Test. Mechanical allodynia was measured using the calibrated von Frey filaments (Semmes-Weinstein monofilaments; Stoelting, Wood Dale, Ill., U.S.A.). The plantar surface of the left injured paw of each animal was tested as described by Chaplan et al. (Journal of Neuroscience Methods, 53, (1994), 55-63). The Fifty percent paw withdrawal threshold response was determined by sequentially increasing or decreasing the stimulus strength according to the “up-down method” of Dixon (Annual Review Pharmacology Toxicology, 20, (1980), 441-462). For mice, […] von Frey filaments were used, with approximately equal logarithmic incremental bending forces (von Frey number: 1.65, 2.36, 2.44, 2.83, 3.22, 3.61, 3.84, 4.08, and 4.17; equivalent to 0.005, 0.02, 0.03, 0.07, 0.17, 0.41, 0.69, 1.20, and 1.48 g force, respectively).
Prior to testing, each animal was placed in a suspended clear plastic chamber with a wire mesh bottom and acclimated for 15 minutes. Testing was initiated with the 0.07 g (handle marking of 2.83) applied perpendicularly to the plantar surface of the affected hind paw; each filament was applied with enough pressure to cause a buckle effect. The absence of a paw lifting/withdrawal response after 6 s prompted the use of the next higher weight filament. Paw withdrawal, indicating a positive response, prompted the use of a weaker filament. After the initial positive response (i.e., paw withdrawal), the testing continued for four additional measurements, and was used to calculate the response threshold. Four consecutive positive responses received a score of 0.001 g, and five consecutive negative responses (i.e., no paw withdrawal) received a score of 1.5 g.
Analyses for Tactile Allodynia Testing. The 50% paw withdrawal threshold was calculated (PWT; Luo and Calcutt, J. Pharmacology Experimental Therapeutics, 303(3), (2002), 1199-1205; Chaplan et al. Journal of Neuroscience Methods, 53, (1994), 55-63) using the formula: 10(Xf+κδ)/10,000 where Xf is the final von Frey filament used (log units), κ is a value that analyzes the response pattern (taken from the table published by Chaplan et al., 1994), and δ is the mean difference between stimuli (log units).
Except for the mode of administration, number of mice/group and the number of injections and amount of compound per injection, the rest of the study was done in the same manner (in regards to the surgeries and tactile allodynia testing and analysis) as Experiment 110. 3.2 mg of each of the MMP inhibitors #5 and #118 were dissolved in 320 microliters of DMSO. To the solution was then added 32 microliters of Tween 80, followed by 2850 microliters of phosphate buffered saline (PBS). This gave a final concentration of 10% DMSO, 1% Tween and 1 mg/ml compound. […]

[3] = test system: humans; details: cited from earlier work
[4] = i.p. 100 μl/mouse daily (approx. 3.3 mg/Kg), day 1-5

% Mean Remaining Parent with NADPH (%) ([1]; with NADPH): 83%
% Mean Remaining Parent without NADPH (%) ([1]; without NADPH (control)): 88%
Compound: Cc1ccc(C#Cc2ccc(S(=O)(=O)N[C@H](Cc3c[nH]c4ccccc34)C(=O)O)s2)cc1 [Compound 5, (R)-3-(1H-Indol-3-yl)-2-(5-p-tolylethynyl-thiophene-2-sulfonylamino)-propionic acid]
Paw withdrawal threshold, mean, Day 1 [2, 4]: 0.078 grams
Paw withdrawal threshold, mean, Day 2 [2, 4]: 0.117 grams
Paw withdrawal threshold, mean, Day 5 [2, 4]: 0.238 grams
Paw withdrawal threshold, mean, Day 6 [2, 4]: 0.099 grams
Paw withdrawal threshold, mean, Day 7 [2, 4]: 0.128 grams
Paw withdrawal threshold, mean, Day 0 Postoperative Baseline ([2]; i.p. study, baseline before treatment): 0.046 grams
Musculoskeletal toxicities ([3]; humans (S-3304: animals or man)): no evidence of musculoskeletal toxicities
Adverse events in humans ([3]; humans): headaches, somnolence, vomiting, nausea and gastrointestinal pain
